Measured values taken from patent publication US11802285B2, “Cytotoxic T cell response modifiers” (DEUTSCHES KREBSFORSCHUNGSZENTRUM STIFTUNG DES ÖFFENTLICHEN …, priority 2013, dated 2023).

Tested on: MCF7 breast cancer cells
Experiment: Luc-CTL assay (luciferase-based readout of CTL-mediated tumor cell lysis, with viability control without CTLs)
Conditions: for T cell mediated lysis of luciferase transfected MCF7 breast cancer target cells (reduction of luciferase activity): co-culture with survivin specific CTL clone, deconvoluted siRNA pool (FIG. 5A, 10A); for viability of luciferase transfected MCF7 breast cancer cells: in the absence of T cells (FIG. 5B, 10B)
Excerpt: In order to comprehensively identify immune checkpoint regulators in an unbiased manner, we harnessed a previously described approach to measure tumor-specific T-cell cytotoxicity which is based on quantifying residual cell-associated luciferase expression following exposure of Luc-expressing cancer cells with CTLs (Brown et al., 2005). We adapted and extended aforementioned approach for high-throughput RNAi screening purposes and termed it ‘Luc-CTL’ assay. Briefly, the screening experiment was set up as follows: In total, three RNAi screens were performed in duplicate and reverse transfection of cells with siRNA pools was performed by delivering 15 μl of RPMI (Invitrogen) containing 0.05 μl of RNAiMAX (Invitrogen). After 30 min of incubation at room temperature, 3000 MCF7 cells (screen 1: MCF7 stably expressing luciferase, screen 2 and 3: wild-type MCF7 cells) in 30 μl of DMEM medium (Invitrogen) supplemented with 10% FBS (Invitrogen) were added to the siRNA transfection mix. Plates were then incubated at 37° C., 5% CO2. 24 h later, cells were either transiently transfected with a luciferase expression plasmid (screen 2) using TransIT-LT1 transfection reagent (Mirius Bio LLC, Madison, USA) according to the manufacturer's instructions or not (screen 1 and screen 3). 72 h post siRNA transfection cancer cells were either challenged with CTLs and anti-CD3×anti-EpCAM bi-specific antibody (screen 1 and screen 2; condition with addition of CTLs) or not (screen 1 and screen 2; condition without addition of CTLs and screen 3). […]
Plate reader data from RNAi screens were statistically analyzed using the cellHTS2 package in R/Bioconductor (Boutros et al., 2006). […] For screen 1 and screen 2, scores from both conditions, i.e. addition of CTLs and without addition of CTLs, were further quantile normalized against each other using the aroma.light package in R. Differential scores were calculated by subtracting quantile normalized scores without addition of CTLs from scores derived with addition of CTLs. In order to robustly identify genes that positively modulate CTL mediated cytotoxicity and to avoid biases potentially introduced by employing CTLs from different donors and employing genetically engineered as well as unmodified MCF7 cells, the 150 top-ranking genes as evaluated by the differential score were extracted for the independent screens 1 and 2 and the overlap between candidate lists was determined. […] Thereby, siRNAs generally affecting cell viability, as determined by intracellular ATP levels, could be excluded.
In order to identify tumor-associated genes that inhibit cell killing by cytotoxic T lymphocytes (CTL), we adapted a luciferase-based readout assay, henceforth referred to as Luc-CTL assay (FIG. 1A). […]

Substance	T cell mediated lysis of luciferase transfected MCF7 breast cancer target cells (reduction of luciferase activity)	viability of luciferase transfected MCF7 breast cancer cells
TAS2R3 siRNA s3: TAS2R3 siRNA, sequence CCGCAUCUCUGAUCAAUGA, SEQ ID NO: 3 (listed as RNA, chemistry not given here)	significantly increase	no impact
TAS2R3 siRNA s4: TAS2R3 siRNA, sequence GCAGACAUUUGUAGUGAUG, SEQ ID NO: 4 (listed as RNA, chemistry not given here)	significantly increase	no impact
